Experimental findings from patent publication US20150346599A1, “PHOTO-DESTROYABLE QUENCHER AND ASSOCIATED PHOTORESIST COMPOSITION, AND DEVICE-FORMING METHOD” (Rohm and Haas Electronic Materials LLC, priority 2014, published 2015) are described below.

Data set [1] is described as follows: Water absorption (hygroscopicity): water weight gain of the solid. The data set is classed as physicochemical. The settings on record: for Weight Gain relative to Reference (%): 1 millimole solid in open vial in 4 liter vessel with 100 milliliters exposed water, 18 hours, reference triphenylsulfonium camphorsulfonate; for Matter State After Exposure to Water: after 18 hours exposure to water vapour. Here is the method: Compounds that absorb atmospheric moisture may cause inaccurate amount additions into formulations and are also difficult to handle. […] To quantify this characteristic, 1 millimole of each solid was placed in an open vial and enclosed in a 4 liter vessel containing 100 milliliters of exposed water. The weight of each vial was prerecorded and reweighed 18 hours later to determine the water weight gain.

The nature of data set [2]: Shelf life testing: compound stability in solution by 1H NMR peak integration. To be noted: 100 millimolar in deuterated dimethylsulfoxide; for Compound Purity (%) 0 days / Compound Purity (%) 3 days / Compound Purity (%) 14 days: 1H NMR at 25° C. The protocol:
Compound stability was monitored by peak integration using ^1H NMR at 25° C. with relaxation delay set to 5 seconds on a 300 Megahertz Varian NMR spectrometer. Compound purity was calculated using the following formula: 100−((sum impurity peaks)/((total impurity peaks)+(total purity peaks))*100).

Consider “5-(4-(tert-Butyl)phenyl)-5H-dibenzo[b,d]thiophen-5-ium 2,3,4,5,6-pentafluorophenolate [Example 5]”, for which, in data set [1], the “Weight Gain relative to Reference (%)” value is recorded as −29%, the “Matter State After Exposure to Water” value is given as “Solid” and the “Matter State Before Exposure to Water” value is reported as “Solid”.
For “5-Phenyl-5H-dibenzo[b,d]thiophen-5-ium 2,3,4,5,6-pentafluorophenolate [Example 2]”, in data set [1], the “Hygroscopicity (in words)” value was “hygroscopic”, the “Weight Gain relative to Reference (%)” value was 43%, the “Matter State After Exposure to Water” value is reported as “Solid” and the “Matter State Before Exposure to Water” value is reported as “Solid”.
As to “5-Phenyl-5H-dibenzo[b,d]thiophen-5-ium 2,3,5,6-tetrafluorophenolate [Example 3]”, in data set [1], the “Weight Gain relative to Reference (%)” value is 29%, the “Matter State After Exposure to Water” value is recorded as “Solid” and the “Matter State Before Exposure to Water” value is reported as “Solid”.
With “5-Phenyl-5H-dibenzo[b,d]thiophen-5-ium 3,5-bis(trifluoromethyl)-phenolate [Example 4]”, in data set [1], the “Weight Gain relative to Reference (%)” value is −14%, the “Matter State After Exposure to Water” value is on record as “Solid” and the “Matter State Before Exposure to Water” value is “Solid”.
In the case of `Cc1cc(-[s+]2c3ccccc3c3ccccc32)cc(C)c1OCC(=O)OC1(C)C2CC3CC(C2)CC1C3.[O-]c1c(F)c(F)c(F)c(F)c1F` [Example 6, 5-(3,5-Dimethyl-4-(2-(((1R,3S,5r,7r)-2-methyladamantant-2-yl)oxy)-2-oxoethoxy)phenyl)-5H-dibenzo[b,d]thiophen-5-ium 2,3,4,5,6-pentafluorophenolate], in data set [1], the “Weight Gain relative to Reference (%)” value is recorded as −43% and the “Matter State Before Exposure to Water” value is on record as “Solid”.
With “Triphenylsulfonium pentafluorophenolate [Example 1]”, in data set [2], the “Compound Purity (%) 0 days” value was determined as 100%, the “Compound Purity (%) 3 days” value was found to be 100% and the “Compound Purity (%) 14 days” value turned out to be 100%. Also, the “Compound stability (in words)” value in data set [2] (up to 14 days) is reported as “substantially more stable than triphenylsulfonium phenolate”. Besides, in data set [1], the “Weight Gain relative to Reference (%)” value was found to be 29% and the “Matter State Before Exposure to Water” value is “Solid”.
As to “triphenylsulfonium camphorsulfonate [reference compound]”, in data set [2], the “Compound Purity (%) 0 days” value is 100%, the “Compound Purity (%) 3 days” value was 100% and the “Compound Purity (%) 14 days” value is 100%. Also, in data set [1], the “Matter State After Exposure to Water” value is recorded as “Solid” and the “Matter State Before Exposure to Water” value is listed as “Solid”.
